Results published in US20070078120A1, “Novel piperidine derivative” (priority 2003, published 2007).
Counter-ions that a name gives are not always drawn.

Assays:
[1] = system: LDL receptor; assay: LDL receptor activity: amount of DiI-LDL uptaken into HepG2 cells; type: cell-based, human; conditions: DiI-LDL uptake into HepG2 cells, control group = 100%
Method: A preparation of 1,1′-dioctadecyl-3,3,3′,3′-tetramethylindocarbocyanine perchlorate (DiI)-labeled LDL (DiI-LDL) was carried out as follows. That is, DiI (invitrogen, the U.S.) was mixed with human LDL (CHEMICON, the U.S.), and the mixture was kept for 8 hours at 37° C. Thereto a specific density solution (d=1.182) was added and mixed, and then treated with super centrifugation operation (32 k rpm, 14 hours; using Beckman Ti55.2 rotator). After the centrifugation, the DiI labeled LDL fraction was taken up and prepared via a dialysis against saline.
The action on LDL receptor was determined with the amount of the DiI-LDL uptaken into HepG2 cells which was as an indicator. Namely, human hepatoma cell line HepG2 was bought from DAINIPPON PHARMACEUTICAL CO., LTD (Osaka, Japan) and it was used for the experiment. The HepG2 cells were plated on a 96 well plate and incubated with Dulbecco's modified Eagle/F-12 medium (DMEM/F-12) containing 10% fetal bovine serum and antibiotics for 2-3 days at 37° C. in a CO2 incubator. After washing the cells, DMEM/F-12 media containing the test compound, 10% delipoprotein serum and antibiotics was added thereto and cells were incubated for 19 hours at 37° C. The DiI-LDL was added thereto, and cells were incubated for additional 5 hours at 37° C. in a CO2 incubator. For the measurement of the amount of nonspecific DiI-LDL uptake, another 30-50 times the nonlabeled LDL was added additively to each well. After washing cells with Dulbecco's phosphate buffer (SIGMA, the U.S.), Dulbecco's phosphate buffer was added to each well, and then the fluorescence value was measured with a fluorescence plate reader to determine the amount of the DiI-LDL uptaken into cells. After measuring the fluorescence, the Dulbecco's phosphate buffer was removed. Cells were dissolved in 1N sodium hydroxide solution. Using a part of the solution, the protein amount was measured. The action of each compound on LDL receptor was estimated on the basis of 100% of the control group, using the value given by subtracting the nonspecifically uptaken amount from the calculated fluorescence value/protein amount.

[2] = system: LDL receptor; assay: Measurement of LDL receptor expression: LDL-R protein amount by immunoblotting in HepG2 cells; type: cell-based, human; conditions: compared with the control group
Method: We investigated the effect of each test compound on the amount of LDL receptor in HepG2 cells, a human hepatoma cell line. Cells were seeded in each well of 6-well plates at the density of 7.5×10^5 cells/well (day 1). On day 3, the culture media was changed to a media containing lipoprotein deficient serum and the test compound. On day 4, the cells were scraped and then collected by centrifugation operation. The collected cells were lysed in a buffer containing 0.1% TritonX-100, treated with centrifugation, and then the supernatant was given as a cell protein solution. Using the prepared cell protein solution, the LDL-R protein amount was determined with an immunoblotting procedure.
HepG2 cells were treated with the compound of Examples 1-4, and then LDL receptor protein amount was determined by immunoblotting procedure.

Row | Compound | Activity of LDL receptor(%) ([1]; 10 μM) | also measured
1 | 1-(2-methoxyphenyl)-4-[3-(methylamino)-phenyl]piperidine-4-carbonitrile and 4-[3-(dimethylamino)-phenyl]-1-(2-methoxyphenyl)piperidine-4-carbonitrile [Example 20] | 123 | –
2 | COc1cccc([C@]2(C#N)CC[C@H](N3CCNCC3)CC2)c1 (as salt: hydrochloride) [Example 58-1, trans-1-(3-methoxyphenyl)-4-piperazin-1-yl-cyclohexanecarbonitrile dihydrochloride] | – | melting point: 159 to 160 °C
3 | COc1cccc(C2(C#N)CCN(c3ccccc3OC)CC2)c1 [Example 1-4, 1-(2-methoxyphenyl)-4-(3-methoxyphenyl)-piperidine-4-carbonitrile] | 134 | LDL receptor protein amount (immunoblotting) ([2]; 1 μM): superior activity enhancing the protein amount of LDL receptor; LDL receptor protein amount (immunoblotting) ([2]; 10 μM): superior activity enhancing the protein amount of LDL receptor
4 | COc1cccc(C2(C#N)CCN(c3ncccc3OCc3ccccc3)CC2)c1 [Example 6-3, 1-[3-(Benzyloxy)pyridin-2-yl]-4-(3-methoxyphenyl)-piperidine-4-carbonitrile] | 127 | –
5 | COc1cccc(C2(C#N)CCN(c3nc4ccccc4s3)CC2)c1 [Example 7-3, 1-(1,3-Benzothiazol-2-yl)-4-(3-methoxyphenyl)piperidine-4-carbonitrile] | – | Activity of LDL receptor(%) ([1]; 3 μM): 125%
6 | COc1cccc(C2(CO)CCN(c3ccccc3OC)CC2)c1 [Example 12, [1-(2-Methoxyphenyl)-4-(3-methoxyphenyl)piperidin-4-yl]-methanol] | 134 | –
7 | COc1cccc(C2(C(=O)NCc3ccccc3)CCN(c3ncccn3)CC2)c1 [Example 43-2, N-benzyl-4-(3-methoxyphenyl)-1-pyrimidin-2-ylpiperidine-4-carboxyamide] | 116 | –
8 | COc1cccc(C2(C(=S)NCc3ccccc3)CCN(c3ncccn3)CC2)c1 [Example 44, N-benzyl-4-(3-methoxyphenyl)-1-pyrimidin-2-ylpiperidine-4-carbothioamide] | – | Activity of LDL receptor(%) ([1]; 3 μM): 135%
9 | COc1cccc(C2(C(N)=O)CC3CCC(C2)N3c2ccccc2OC)c1 (centres unmarked) [Example 49-f, 8-(2-Methoxyphenyl)-3-(3-methoxyphenyl)-8-azabicyclo-[3.2.1]octane-3-carboxyamide] | 135 | –
10 | COc1cccc(C2(CN3CCCCC3)CCN(c3ccccc3OC)CC2)c1 [Example 55-1, 1-(2-methoxyphenyl)-4-(3-methoxyphenyl)-4-(piperidin-1-ylmethyl)piperidine] | – | Activity of LDL receptor(%) ([1]; 1 μM): 141%
11 | COc1cccc([C@]2(C#N)CC[C@H](N3CCNCC3)CC2)c1 [Example 58-1, trans-1-(3-methoxyphenyl)-4-piperazin-1-yl-cyclohexanecarbonitrile dihydrochloride] | 152 | –
12 | COc1cccc(C2(C#N)CCC(N3CCN(c4ncccn4)CC3)CC2)c1 (centres unmarked) [Example 82, 1-(3-methoxyphenyl)-4-(4-pyrimidin-2-yl-piperazin-1-yl)cyclohexanecarbonitrile] | 125 | –
13 | COc1cccc(C2(C#N)CCN(C3CCNCC3)CC2)c1 [Example 85, 4-(3-methoxyphenyl)-1,4′-bipiperidine-4-carbonitrile dihydrochloride] | 149 | –
14 | COc1cccc(C2(C#N)CCN(C3CCN(Cc4ccccc4)CC3)CC2)c1 [Example 89, 1′-benzyl-4-(3-methoxyphenyl)-1,4′-bipiperidine-4-carbonitrile] | 195 | –
15 | COc1cccc([C@]2(C#N)CC[C@@H](NCc3ccccc3)CC2)c1 [Example 105, cis-4-(benzylamino)-1-(3-methoxyphenyl)-cyclohexanecarbonitrile] | 139 | –
